Experimental findings from US20220055989A1, “CONDENSED PYRROLES AS NOVEL BROMODOMAIN INHIBITORS” (ALBERT LUDWING UNIVERSITÄT FREIBURG, priority 2018, published 2022) are described below.

The target of test [1] is T1, BRD1 (Homo sapiens, UniProt O95696).
T1 construct: T7 phage strains displaying bromodomains were grown in parallel; made in house; host or cells: T7 phage grown in an E. coli host derived from the BL21 strain
The test is described as follows: Bromodomain assay % Ctrl determination BRD1. Particulars: lower numbers indicate a stronger binding. As for the experimental part: (§1) Compounds that bind the bromodomain prevent its binding to the immobilized ligand thus reducing the amount of protein captured. […] Hits are identified by measuring the amount of bromodomain captured in test versus control samples. Bromodomain assays for % Ctrl determination: T7 phage strains displaying bromodomains were grown in parallel in 24-well blocks in an E. coli host derived from the BL21 strain. E. coli were grown to log-phase and infected with T7 phage from a frozen stock (multiplicity of infection=0.4) and incubated with shaking at 32° C. until lysis (90-150 minutes). The lysates were centrifuged (5,000×g) and filtered (0.2 μm) to remove cell debris. […] The liganded beads were blocked with excess biotin and washed with blocking buffer (SeaBlock (Pierce), 1% BSA, 0.05% Tween 20, 1 mM DTT) to remove unbound ligand and to reduce non-specific phage binding. […] Test compounds were prepared as 1000× stocks in 100% DMSO and subsequently diluted 1:25 in monoethylene glycol (MEG). The compounds were then diluted directly into the assays such that the final concentrations of DMSO and MEG were 0.1% and 2.4%, respectively. All reactions were performed in polypropylene 384-well plates in a final volume of 0.02 ml. […] The bromodomain concentration in the eluates was measured by qPCR. […]

A further test has as its system HL-60 cells. The experiment in a line: GI50 in a culture of HL-60 cells. The test is classed as cell-based. The conditions noted are these: concentration required to reduce the population of a culture of HL-60 cells by 50%.
The target in the next test is T2, PCAF (Homo sapiens, UniProt Q92831).
T2 construct: T7 phage strains displaying bromodomains were grown in parallel; host or cells: T7 phage grown in E. coli host derived from BL21
T2 sequence (Q92831 723-827 limits assumed): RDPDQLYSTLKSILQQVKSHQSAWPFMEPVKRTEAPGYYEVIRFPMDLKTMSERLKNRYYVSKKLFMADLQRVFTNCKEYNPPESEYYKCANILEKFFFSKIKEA
The experiment in a line: Bromodomain assay % Ctrl determination PCAF. Particulars: lower numbers indicate a stronger binding. As for the experimental part:
as §1

For another test, the target named is T3, FALZ (Homo sapiens, UniProt Q12830).
T3 construct: T7 phage strains displaying bromodomains were grown in parallel; host or cells: T7 phage grown in E. coli host derived from BL21
The test is described as follows: Bromodomain assay % Ctrl determination FALZ. The conditions noted are these: lower numbers indicate a stronger binding. The procedure:
as §1

Test [2] addresses T4, SMARCA4 (Homo sapiens, UniProt P51532).
T4 construct: T7 phage strains displaying bromodomains were grown in parallel; host or cells: T7 phage grown in E. coli host derived from BL21
The test is described as follows: Bromodomain assay % Ctrl determination SMARCA4. The conditions noted are these: lower numbers indicate a stronger binding. The procedure:
as §1

Test [3] addresses T5, GCN5L2 (Homo sapiens, UniProt Q92830).
T5 construct: T7 phage strains displaying bromodomains were grown in parallel; host or cells: T7 phage grown in E. coli host derived from BL21
The test is described as follows: Bromodomain assay % Ctrl determination GCN5L2. The conditions noted are these: lower numbers indicate a stronger binding. As for the experimental part: as §1

The target in test [4] is T5, GCN5L2. The test is described as follows: BROMOscan Kd determination GCN5L2. The format is binding. The procedure:
(§2) Bromodomain profiling was carried out on the basis of BROMOscan™. This platform accounted for the indirect determination of the dissociation constants between 19 bromodomains and the compound of formula (13), by binding competition against a reference immobilized ligand. Compounds that bind the bromodomain prevent its binding to the immobilized ligand thus reducing the amount of protein captured. […] Hits are identified by measuring the amount of bromodomain captured in test versus control samples. Bromodomain assays for Kd determination: T7 phage strains displaying bromodomains were grown in parallel in 24-well blocks in an E. coli host derived from the BL21 strain. E. coli were grown to log-phase and infected with T7 phage from a frozen stock (multiplicity of infection=0.4) and incubated with shaking at 32° C. until lysis (90-150 minutes). The lysates were centrifuged (5,000×g) and filtered (0.2 μm) to remove cell debris. […] Kds were determined using an 11-point 3-fold compound dilution series with one DMSO control point. […] The bromodomain concentration in the eluates was measured by qPCR. […] Most Kds were determined using a compound top concentration=10,000 nM. […] Binding Constants (Kds): Binding constants (Kds) were calculated with a standard dose-response curve using the Hill equation: The Hill Slope was set to −1. […]

The target in test [5] is T1, BRD1. The test is described as follows: BROMOscan Kd determination BRD1. The format is binding. The procedure:
as §2

A further test has as its target T6, TRIM33(PHD, Bromo.) (Homo sapiens, UniProt Q9UPN9).
T6 construct: TRIM33(PHD, Bromo.); the phage DNA is read by qPCR
The experiment in a line: BROMOscan Kd determination TRIM33(PHD, Bromo.). The format is binding. As for the experimental part: as §2

The target of test [6] is T4, SMARCA4. The experiment in a line: BROMOscan Kd determination SMARCA4. The format is binding. As for the experimental part:
as §2

In another test the target is T7, BRD2(1, 2) (Homo sapiens, UniProt P25440).
T7 construct: T7 phage strains displaying bromodomains were grown in parallel; made in house; host or cells: T7 phage grown in an E. coli host derived from the BL21 strain
T7 sequence (P25440 71-455 limits assumed): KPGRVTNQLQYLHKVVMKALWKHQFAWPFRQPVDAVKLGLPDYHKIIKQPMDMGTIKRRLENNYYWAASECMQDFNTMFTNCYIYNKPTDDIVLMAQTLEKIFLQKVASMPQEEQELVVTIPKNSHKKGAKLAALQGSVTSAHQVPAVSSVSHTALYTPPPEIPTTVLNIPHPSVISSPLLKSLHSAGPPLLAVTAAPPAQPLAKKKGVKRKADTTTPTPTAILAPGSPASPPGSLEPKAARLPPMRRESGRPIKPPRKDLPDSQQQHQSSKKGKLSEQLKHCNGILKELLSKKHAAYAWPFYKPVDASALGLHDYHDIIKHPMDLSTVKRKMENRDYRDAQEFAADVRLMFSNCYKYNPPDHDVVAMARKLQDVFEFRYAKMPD
The experiment in a line: BROMOscan Kd determination BRD2(1, 2). The test is classed as binding. The procedure:
as §2

The target in a further test is T8, BRDT(1, 2) (Homo sapiens, UniProt Q58F21).
T8 construct: T7 phage strains displaying bromodomains were grown; host or cells: T7 phage in E. coli derived from BL21
The test is described as follows: BROMOscan Kd determination BRDT(1, 2). The test is classed as binding. The procedure:
as §2

pKd: −log10 of the molar value.

T5 sequence (Q92830 728-832 limits assumed): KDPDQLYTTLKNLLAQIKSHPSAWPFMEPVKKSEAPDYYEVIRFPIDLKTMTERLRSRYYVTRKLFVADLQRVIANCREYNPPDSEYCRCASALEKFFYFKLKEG
T1 sequence (O95696 562-666 limits assumed): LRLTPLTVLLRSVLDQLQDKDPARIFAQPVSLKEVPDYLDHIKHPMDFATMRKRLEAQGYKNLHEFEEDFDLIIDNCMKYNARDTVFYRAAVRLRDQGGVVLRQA
T4 sequence (P51532 1453-1564 limits assumed): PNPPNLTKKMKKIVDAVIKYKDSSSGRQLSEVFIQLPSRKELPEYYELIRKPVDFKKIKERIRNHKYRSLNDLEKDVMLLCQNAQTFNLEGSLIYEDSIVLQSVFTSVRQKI
T6 sequence (Q9UPN9 whole entry): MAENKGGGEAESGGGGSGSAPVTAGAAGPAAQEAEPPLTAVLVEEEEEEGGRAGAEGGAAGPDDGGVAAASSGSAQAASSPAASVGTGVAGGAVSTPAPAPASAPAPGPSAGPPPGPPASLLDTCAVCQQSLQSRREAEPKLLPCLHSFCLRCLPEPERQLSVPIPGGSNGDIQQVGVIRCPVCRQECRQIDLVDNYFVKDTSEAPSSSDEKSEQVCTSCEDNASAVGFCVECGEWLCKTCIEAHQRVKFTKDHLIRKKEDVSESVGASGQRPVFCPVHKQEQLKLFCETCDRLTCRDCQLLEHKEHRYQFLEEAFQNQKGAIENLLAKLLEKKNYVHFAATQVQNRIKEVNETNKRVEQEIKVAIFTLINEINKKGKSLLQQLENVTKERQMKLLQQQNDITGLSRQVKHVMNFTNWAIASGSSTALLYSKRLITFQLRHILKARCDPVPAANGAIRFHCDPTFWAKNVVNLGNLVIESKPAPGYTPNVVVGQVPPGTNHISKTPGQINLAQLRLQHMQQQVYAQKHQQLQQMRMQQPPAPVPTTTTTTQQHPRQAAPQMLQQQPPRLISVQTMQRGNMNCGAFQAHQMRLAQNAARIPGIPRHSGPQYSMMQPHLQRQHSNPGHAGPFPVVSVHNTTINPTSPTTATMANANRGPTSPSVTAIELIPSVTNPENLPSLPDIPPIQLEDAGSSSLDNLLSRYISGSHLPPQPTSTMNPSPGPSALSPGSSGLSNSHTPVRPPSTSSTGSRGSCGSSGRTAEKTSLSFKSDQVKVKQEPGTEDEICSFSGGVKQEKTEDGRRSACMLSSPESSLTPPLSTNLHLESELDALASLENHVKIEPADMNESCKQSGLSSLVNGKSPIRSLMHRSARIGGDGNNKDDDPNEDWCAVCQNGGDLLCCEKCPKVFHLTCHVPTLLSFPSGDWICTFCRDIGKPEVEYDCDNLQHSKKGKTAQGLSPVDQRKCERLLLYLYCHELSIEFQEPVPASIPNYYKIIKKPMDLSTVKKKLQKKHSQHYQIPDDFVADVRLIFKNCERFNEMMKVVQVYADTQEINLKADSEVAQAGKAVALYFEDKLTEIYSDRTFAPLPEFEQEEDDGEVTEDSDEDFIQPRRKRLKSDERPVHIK

For the compound `COc1ccc(S(=O)(=O)N2CCOCC2)cc1NC(=O)c1[nH]c(C)c2c1CCCCC2=O` [Compound 13, N-(2-methoxy-5-(morpholinosulfonyl)phenyl)-3-methyl-4-oxo-2,4,5,6,7,8-hexahydrocyclohepta[c]pyrrole-1-carboxamide], on BRD1 [1], the “% Ctrl @ 10 000 nM BRD1” value came to 26 % Ctrl. In the test with HL-60 cells, this compound registered a GI50HL60 of 0.17 µM. The “% Ctrl @ 10 000 nM PCAF” value on PCAF amounted to 20 % Ctrl. The “% Ctrl @ 10 000 nM FALZ” value at FALZ was found to be 6.8 % Ctrl. The “% Ctrl @ 10 000 nM SMARCA4” value at SMARCA4 [2] turned out to be 71 % Ctrl. Also, the “% Ctrl @ 10 000 nM GCN5L2” value on GCN5L2 [3] worked out at 44 % Ctrl.

On to `Cc1[nH]c(-c2cc(N)ccc2Cl)c2c1C(=O)CCCC2` [Compound 23], for which the pKd (usually the negative decadic logarithm of the Kd, by convention in mol/L) on GCN5L2 [4] was under 5.00; on BRD1 [5], 5.51; at TRIM33(PHD, Bromo.), 5.11; at SMARCA4 [6], under 5.00; on BRD2(1, 2), 7.08; at BRDT(1, 2) it was 6.38.
